These results are taken from ChEMBL document CHEMBL1255298, “Larger vancomycin doses (at least four grams per day) are associated with an increased incidence of nephrotoxicity” (Antimicrob Agents Chemother, 2008).

The species entered for data set [1] is Homo sapiens. In words: Nephrotoxicity in patient with gram-positive bacterial infection assessed as change in serum […] level at > 4 g/day measured within 72 hrs. Conditions: in vivo. It is filed as toxicity, organism-based.
For data set [2], the species on record is Homo sapiens. As to the kind of experiment: Nephrotoxicity in patient with gram-positive bacterial infection assessed as serum […] level at > 4 g/day measured within 72 hrs. It is filed as toxicity, organism-based. The settings on record: in vivo.

Regarding `CN[C@H](CC(C)C)C(=O)N[C@H]1C(=O)N[C@@H](CC(N)=O)C(=O)N[C@H]2C(=O)N[C@H]3C(=O)N[C@H](C(=O)N[C@H](C(=O)O)c4cc(O)cc(O)c4-c4cc3ccc4O)[C@H](O)c3ccc(c(Cl)c3)Oc3cc2cc(c3O[C@@H]2O[C@H](CO)[C@@H](O)[C@H](O)[C@H]2O[C@H]2C[C@](C)(N)[C@H](O)[C@H](C)O2)Oc2ccc(cc2Cl)[C@H]1O` [VANCOMYCIN], the values for the Activity in the data set listed under Homo sapiens [1] and in the data set filed under Homo sapiens [2] were 45.6% and 2.1 mg/dL, respectively.
